Where no end group is shown, it is not given here.
How the values were obtained:
A549.tTA cells [1] = experiment: Cell tracker assay (Dil) of GFP fusion peptides; format: cell-based; conditions: for anti-proliferative effect (cell tracker assay, in words): GFP-fused peptides expressed in A549.tTA cells; for cell death after infection of retrovirus encoding GFP fused peptides: A549.tTA cells, data not shown
Experimental: A549.tTA cells were infected with tet-regulatable retroviruses expressing GFP fusion peptides, stained with the cell tracker dye, Dil, and incubated at 37° C. for five days. After the incubation, fluorescent intensity of GFP and Dil was analyzed with MoFlo. A growth ratio was obtained as the ratio of mean Dil fluorescent intensity for the GFP positive population relative to that of the GFP negative population.
Effect of GFP fused peptides and their mutants. GFP fused peptides (#40, #41, #88 and their mutants) expressing A549.tTA cells were stained with Dil and fluorescent intensity of GFP and Dil was examined with MoFlo. A growth ratio was obtained as described above. Mutated residues were underlined. Amino acid sequences of #40, #41, and #88 were aligned with leucine-rich motifs of HIV-1 Rev (amino acid position 75 to 84, gi|16118296|gb|AAL12672.1|), HTLV-1 Rex (amino acid position 82 to 93, gi|7963889|gb|AAF71372.1), Mitogen-activated protein kinase kinase 1, MAPKK, (amino acid position 33 to 43, gi|5579478|ref|NP_002746.1|), Human homologue of mouse double minute 2, Hdm-2, (amino acid position 190 to 200, gi|4505137|ref|NP_002383.1|), and Protein kinase inhibitor, PKI (amino acid position 38 to 48, gi|203271|gb|AAA40867.1|).
Effect of GFP fused peptides and their mutants. A549.tTA cells were infected with retroviruses encoding GFP fusion peptides (#38 and its mutants) and stained with the cell tracker dye, Dil. After the infection, fluorescent intensity of GFP and Dil was examined with MoFlo. A growth ratio was obtained as the ratio of mean Dil fluorescent intensity for the GFP positive population relative to that of the GFP negative population and data are shown as mean±SE in duplicate. Mutated residues or non-identical residues of the C-terminus of cell division cycle 42 isoform 2, CDC42C, (amino acid position 183 to 191, gi|16357472|ref|NP_426359.1|) to #38 were underlined. As controls, entire GFP-C20 library, dsGFP and GFP fused p21C expressing A549.tTA cells were used.

A549.tTA cells [2] = experiment: Cell cycle analysis (Hoechst 33258) of cells expressing GFP fusion peptides; format: cell-based, human; conditions: GFP low (R1) and GFP high (R2) populations
Experimental: A549.tTA cells expressing GFP fusion peptides were fixed with Cell Fixation/Permeabilization Kits (BD bioscience, Lexington, Ky., U.S.A.) as manufacturer's recommendation and stained with 5 mM Hoechst 33258 (Sigma, St. Louis, Mo., U.S.A.). GFP and Hoechst fluorescent intensity was analyzed with MoFlo.

A549 cells = experiment: High content imaging of anti-proliferative synthetic K7 peptides (nuclei and apoptotic nuclei, 24 hours); format: cell-based, human
Experimental: A549 cells (American Type Culture Collection (ATCC), Manassas, Va., U.S.A.) were plated at 2000 cells/well in 96 well plates with F12K media supplemented with 10% fetal bovine serum and 1% penicillin/streptomycin and allowed to grow for 24 hours. Peptide dissolved in media was added to the cells to a final concentration ranging from 0.8 to 25 uM in triplicate. Following incubation with peptide for 24 hours, cells were fixed with 3.7% formaldehyde for 30 minutes, rinsed in PBS and stained with DAPI (Molecular Probes) to label nuclear DNA. Digital images were taken of the labeled nuclei in each well using a Zeiss Axiovert microscope, UV filter set and Photometrics camera.

[3] = tested on: A549 lung carcinoma cells; experiment: Fluorescence microscopy examination of A549 cells exposed to lys7-peptides (nuclei, apoptosis, cell cycle stage, 48 hours); format: cell-based, human; conditions: for number of observed cell nuclei remaining: A549 cells, 48 hours exposure, increasing doses; for cell cycle stage distribution: asynchronously growing A549 cells, 48 hours, remaining cells that have not undergone apoptosis
Experimental: A549 tumor cells (American Type Culture Collection, Fairfax Va.) were plated at 2000 cells per well in 96 well plates with F12k media supplemented with 10% fetal bovine serum and 1% penicillin/streptomycin and allowed to grow for 24 hours. Peptide dissolved in media was added to the cells to a final concentration of 0.8 to 100 uM in triplicate. Following incubation with peptide for 24 or 48 hours, cells were fixed with 3.7% formaldehyde for 30 minutes, rinsed in PBS and stained with DAPI (Molecular Probes, OR) to label nuclear DNA. Digital images of the labeled nuclei in each well were taken using a Zeiss Axiovert microscope, UV filter set and Photometrics camera.

[4] = tested on: A549 cells expressing GFP fusion #38 and #41; experiment: Displacement of cellular localization of GFP fusion peptides by synthetic analogues; format: cell-based, human; conditions: 100 μM peptide, 5 hours
Experimental: GFP fused #38, #40, and #41 were concentrated at the plasma membrane and granular cytoplasmic structures. […] We examined whether synthetic analogues can displace cellular localization of GFP fusion peptides. A549 cells expressing GFP fusion #38 and #41 were incubated with 100 μM of K7—#41, K7—#41M and K7—#40 for 5 hours and GFP localization was analyzed using a fluorescent microscope.

[5] = Table 2, GFP fusion #38 and mutants in A549.tTA cells, ratio of mean Dil intensity, GFP positive relative to GFP negative, duplicate
[6] = Table 1, GFP fused peptides in A549.tTA cells, ratio of mean Dil fluorescent intensity, GFP positive relative to GFP negative population, five days

| Substance | anti-proliferative effect (cell tracker assay, in words) (A549.tTA cells [1]) | Growth Ratio (mean ± SE) (A549.tTA cells [1]; [5]) | Growth Ratio (mean ± SE) (A549.tTA cells [1]; [6]) | other results |
| --- | --- | --- | --- | --- |
| AALEPPETQPKRKCCIF [CDC42C, C-terminal 17 residues of cell division cycle 42 isoform 2, expressed as GFP-fused peptide, reference compound] | no significant anti-proliferative activity | 1.3 ± 0.1 | – | – |
| ASGLLKLVQAKRKCCIS (cysteine pairing not given here; also: GFP fusion) [#38(T1A)] | – | 3.5 ± 0.2 | – | – |
| GRGCIFRWRRGARGMARAFK (also: GFP fusion) [#41(L12A/M16A/L18A)] | no significant localization or anti-proliferative effect | – | 1.1 ± 0.1 | – |
| GRGCIFRWRRGLRGMARAFK (also: GFP fusion) [#41(M16A/L18A)] | reduced the anti-proliferative effect | – | 1.5 | – |
| GRGCIFRWRRGLRGMMRAFK (also: GFP fusion) [#41(L18A)] | partial loss of the anti-proliferative effect | – | 1.7 | – |
| GRGCIFRWRRGLRGMMRLFK (also: GFP fusion) [#41, anti-proliferative peptide tested as GFP fusion] | significant inhibitors of cell proliferation | – | 2.7 ± 0.2 | cell death after infection of retrovirus encoding GFP fused peptides (A549.tTA cells [1]): did not observe massive cell death; cell cycle profile (DNA content, Hoechst 33258) (A549.tTA cells [2]): arrested in G0/G1 |
| KRRQTSMTDFYHSKRRLIFSKRKP [p21C, reference compound] | significant antiproliferative effect | 4.5 ± 0.8 | 4.5 ± 0.8 | – |
| QAKRKCCIS ({GFP}-QAKRKCCIS; cysteine pairing not given here; also: fused to GFP C-terminus) [#38NΔ(1-8)] | – | 1.5 ± 0.1 | – | – |
| RLRRICSGILLARRIAGAFVRPVRP (also: GFP fusion) [#88(I12AILI6A/118A)] | – | – | 1.1 ± 0.1 | – |
| RLRRICSGILLIRRIAGAFVRPVRP (also: GFP fusion) [#88(L16A/L18A)] | – | – | 1.1 | – |
| RLRRICSGILLIRRILGAFVRPVRP (also: GFP fusion) [#88(118A)] | – | – | 1.5 | – |
| RLRRICSGILLIRRILGIFVRPVRP [#88] | significant inhibitors of cell proliferation | – | 2.7 ± 0.4 | cell death after infection of retrovirus encoding GFP fused peptides (A549.tTA cells [1]): did not observe massive cell death; cell cycle profile (DNA content, Hoechst 33258) (A549.tTA cells [2]): no significant change in the DNA content profile |
| RWDPTRLLRARFARALVRRSRPVRP (also: GFP fusion) [#40(F10A/L13A/M15A)] | – | – | 1.3 ± 0.1 | – |
| RWDPTRLLRFRFARALVRRSRPVRP (also: GFP fusion) [#40(L13A/M15A)] | – | – | 1.6 ± 0.2 | – |
| RWDPTRLLRFRFLRALVRRSRPVRP (also: GFP fusion) [#40(M15A)] | – | – | 2.0 | – |
| RWDPTRLLRFRFLRMLVRRSRPVRP (also: GFP fusion) [#40, anti-proliferative peptide tested as GFP fusion] | significant inhibitors of cell proliferation | – | 2.4 ± 0.3 | cell death after infection of retrovirus encoding GFP fused peptides (A549.tTA cells [1]): did not observe massive cell death; cell cycle profile (DNA content, Hoechst 33258) (A549.tTA cells [2]): no significant change in the DNA content profile |
| TAGLLKLVQAKRKCCIS (cysteine pairing not given here; also: GFP fusion) [#38(S2A)] | enhanced | 5.5 ± 0.8 | – | – |
| TSALLKLVQAKRKCCIS (cysteine pairing not given here; also: GFP fusion) [#38(G3A)] | – | 2.7 ± 0.2 | – | – |
| TSGALKLVQAKRKCCIS (cysteine pairing not given here; also: GFP fusion) [#38(L4A)] | – | 2.2 ± 0.1 | – | – |
| TSGLAKLVQAKRKCCIS (cysteine pairing not given here; also: GFP fusion) [#38(L5A)] | – | 1.9 ± 0.2 | – | – |
| TSGLLALVQAKRKCCIS (cysteine pairing not given here; also: GFP fusion) [#38(K6A)] | reduced anti-proliferative effect | 1.4 ± 0.1 | – | – |
| TSGLLKAVQAKRKCCIS (cysteine pairing not given here; also: GFP fusion) [#38(L7A)] | – | 2.0 ± 0.2 | – | – |
| TSGLLKLAQAKRKCCIS (cysteine pairing not given here; also: GFP fusion) [#38(V8A)] | – | 2.7 ± 0.2 | – | – |
| TSGLLKLVQAKRKACIS (not fully specified (N-terminus)) [#38(C14A)] | – | 1.1 ± 0.1 | – | – |
| TSGLLKLVQAKRKCCIS ({GFP}-TSGLLKLVQAKRKCCIS; not fully specified; cysteine pairing not given here) [#38, 17mer anti-proliferative peptide with CAAX box motif, tested fused to the C-terminus of GFP] | significant inhibitors of cell proliferation | 2.5 ± 0.2 | – | cell death after infection of retrovirus encoding GFP fused peptides (A549.tTA cells [1]): did not observe massive cell death; cell cycle profile (DNA content, Hoechst 33258) (A549.tTA cells [2]): arrested in G0/G1 |
| synthetic #40 fused with seven Lys (K7) via a linker (GGEEAAKA) at the N-terminus [K7—#40] | – | – | – | apoptotic nuclei (A549 cells): increase in apoptotic nuclei; number of observed cell nuclei remaining [3]: ca. 10 % of original values; cell cycle stage distribution [3]: depletion of G1 cells, a complete loss of S and G2 cells at 100 mM levels, and an increase in M phase cells; change of cellular localization of GFP fusion #41 [4]: these changes were not seen |
| synthetic #41 fused with seven Lys (K7) via a linker (GGEEAAKA) at the N-terminus [K7—#41] | – | – | – | apoptotic nuclei (A549 cells): increase in apoptotic nuclei; number of observed cell nuclei remaining [3]: ca. 10 % of original values; cell cycle stage distribution [3]: G1 phase cells were depleted and the percent of M phase cells increased significantly; change of cellular localization of GFP fusion #41 [4]: punctuated localization of GFP and loss of GFP localization in the cell-cell contact area |

Reference: patent publication US20060216299A1, “Cell cycle targets and peptides” (Rigel Pharmaceuticals, Inc., priority 2002, published 2006)
